Laboratory results: patent US20090209576A1, “PHARMACEUTICAL COMPOSITION CONTAINING CLOPIDOGREL CAMPHORSULFONATE OR POLYMORPHIC FORMS THEREOF” (HANMI PHARM. CO., LTD., priority 2006, published 2009)
Structures can show the parent of a compound that is named as a salt. Where two headings read alike, the source gives them in different places.

Key:
physchem = experiment: physchem
From the text: (§1) Condition A: For the Measurement of the Assay of Acid Addition Salt of Clopidogrel
(§2) Column: Kromasil C18, 5 μm (250 mm×4.6 mm)
(§3) Mobile phase: Na2HPO4—NaH2PO4 buffer solution:TBF:CH3CN=5:2:3 (v/v)
The camphorsulfonate polymorphic form A1 obtained in Example 1, the camphorsulfonate polymorphic form B1 obtained in Example 2, the hydrogen sulfate obtained in Comparative Example 1 and the benzenesulfonate obtained in Comparative Example 2 were each dissolved in unionized water until saturated. The amounts of clopidogrel in the resulting solutions were measured under HPLC condition A, and the results are shown in Table 5.

[1] = for Amount of acid addition salts of clopidogrel / Amount of hydrolyzed impurities / Amount of levorotatory isomers / Water content: 60±2° C., 75±5% relative humidity; for water content / hygroscopicity under accelerated condition: 60° C. and 75% relative humidity for a period of over 28 days
Procedure: as §1, §2, §3
Condition B: For the Measurement of the Amount of Hydrolyzed Impurities of Acid Addition Salt of Clopidogrel
Column: Capcellpak C18 MG, 5 μm (250 mm×4.6 mm)
Mobile phase: KH2PO4 buffer solution/CH3CN (70/30):KH2PO4 buffer solution/CH3CN (30/70)=0:100→[…] (v/v, gradient elution)
Condition C: For the Measurement of the Optical Purity of Acid Addition Salt of Clopidogrel
Column: Chiralpak AD, 5 μm (250 mm×4.6 mm)
Mobile phase: n-hexane:isopropanol=90:10 (v/v)
The camphorsulfonate polymorphic form A1 obtained in Example 1, the camphorsulfonate polymorphic form B1 obtained in Example 2, the hydrogen sulfate obtained in Comparative Example 1 and the benzenesulfonate obtained in Comparative Example 2 were each subjected to a condition of 60±2° C. and 75±5% relative humidity for a period of 28 days to test their stabilities. The changes of the assay of the acid addition salts of clopidogrel, and the amounts of hydrolyzed impurities and levorotatory isomers thereof and the water content thereof were measured at 7, 14, 21 and 28 days relative to that of the initial day (0) using HPLC. The results are shown in Tables 6 to 9 and FIGS. 12 to 15, respectively.

[2] = dissolved in unionized water until saturated, HPLC condition A

| Molecule | Water-solubility (physchem; [2]) | Amount of acid addition salts of clopidogrel ([1]; 0 day) | Amount of hydrolyzed impurities ([1]; 0 day) | Amount of levorotatory isomers ([1]; 0 day) | Water content ([1]; 0 day) | Amount of acid addition salts of clopidogrel ([1]; 7 days) | Amount of hydrolyzed impurities ([1]; 7 days) | Amount of levorotatory isomers ([1]; 7 days) | Water content ([1]; 7 days) | Amount of acid addition salts of clopidogrel ([1]; 14 days) | Amount of hydrolyzed impurities ([1]; 14 days) | Amount of levorotatory isomers ([1]; 14 days) | Water content ([1]; 14 days) | Water content ([1]; 21 days) | Amount of acid addition salts of clopidogrel ([1]; 28 days) | Amount of hydrolyzed impurities ([1]; 28 days) | Amount of levorotatory isomers ([1]; 28 days) | Water content ([1]; 28 days) | water content / hygroscopicity under accelerated condition [1] | also measured |
| --- | --- | --- | --- | --- | --- | --- | --- | --- | --- | --- | --- | --- | --- | --- | --- | --- | --- | --- | --- | --- |
| Clopidogrel benzenesulfonate [reference compound] | 4.74 mg/ml, as clopidogrel | 99.3% | 0.01% | 0.01% | 0.1% | 93.9% | 2.79% | 0.81% | 6.4% | 80.5% | 8.56% | 2.49% | 7.3% | 9.2% | 61.7% | 25.33% | 4.79% | 9.4% | – | – |
| COC(=O)C(c1ccccc1Cl)N1CCc2sccc2C1 (stereo in doubt) [Camphorsulfonate (polymorphic form A1), clopidogrel (−)-(1R)-camphor-10-sulfonate] | 4.04 mg/ml, as clopidogrel | 99.2% | 0.01% | 0.02% | 0.0% | 99.1% | 0.08% | 0.02% | 0.1% | 99.6% | 0.15% | 0.02% | 0.0% | 0.0% | 99.1% | 0.17% | 0.02% | 0.1% | almost maintain their original water contents | solubility (physchem; unionized water, water, thermodynamic from solid): ~4000 µg/mL |
| COC(=O)[C@H](c1ccccc1Cl)N1CCc2sccc2C1 [Camphorsulfonate (polymorphic form B1), clopidogrel (+)-(1S)-camphor-10-sulfonate] | 3.98 mg/ml, as clopidogrel | 99.6% | 0.01% | 0.01% | 0.1% | 99.2% | 0.01% | 0.01% | 0.1% | 99.9% | 0.02% | 0.02% | 0.1% | 0.1% | 99.3% | 0.03% | 0.03% | 0.1% | almost maintain their original water contents | Water-solubility (physchem; measured in a saturated aqueous solution): around 4.0 mg/ml |
| COC(=O)[C@H](c1ccccc1Cl)N1CCc2sccc2C1 [Hydrogen sulfate, Clopidogrel hydrogen sulfate, reference compound] | 7.42 mg/ml, as clopidogrel | 99.2% | 0.03% | 0.01% | 0.2% | 98.8% | 0.72% | 0.05% | 0.3% | 97.5% | 2.15% | 0.19% | 0.8% | 2.8% | 80.5% | 16.49% | 1.53% | 7.3% | – | – |
